Results on one molecule are retold here after PMC10895668, “Lead Optimization of the 5-Phenylpyrazolopyrimidinone NPD-2975 toward Compounds with Improved Antitrypanosomal Efficacy” (Journal of Medicinal Chemistry, 2024).

Each structure is given as a SMILES string. Where two headings read alike, the source gives them in different places. Bounds are passed on as bounds.

One experiment relates to Trypanosoma cruzi. The experiment in a line: Antiparasitic assay, T. cruzi. To be noted: mean ± SD, n ≥ 2, read-out: pIC50 T. cruzi (converted). Type of experiment: cell-based. The procedure:
First, they were tested in vitro against the protozoan species Trypanosoma cruzi and Leishmania infantum and the clinically relevant T. b. rhodesiense.
The antiparasitic assays were carried out exactly as described in Blaazer et al.([39]) Metabolic stability, pharmacokinetics, acute mouse infection model results were collected as described previously.[21] All animal experiments were conducted in compliance with institutional guidelines and following approval by the Ethical Committee of the University of Antwerp, Belgium [UA-ECD 2014–96]. Female Swiss mice (15–20 g), were purchased from Janvier (Le Genest Saint Isle, France). […] Animals were treated PO b.i.d. for 5 days at 25 and 50 mg/kg 31c. For the SL-RNA qPCR experiments blood was collected sublingually and subjected to erythrocyte lysis before extracting RNA with the QIAamp RNA Blood Mini kit (Qiagen). […] Small pieces of fat, brain, and spleen tissue were excised and immediately transferred to RNA later (Qiagen) and incubated overnight at 4 °C. RNA extraction was performed as instructed in the RNeasy Mini Plus Kit manual (Qiagen). The one-step SensiFAST SYBR Hi-Rox PCR kit (Bioline USA Inc., via Gentaur Belgium BVBA, Kampenhout, Belgium) was used for the PCR with the following forward and reverse primers, respectively 5′-[…]-3′ and 5′-[…]-3′. […]

Experiment [1] deals with peritoneal mouse macrophages (PMM). Briefly: Cytotoxicity on peritoneal mouse macrophages. Type of experiment: cell-based. The following applies: Macrophage, n ≥ 2.
The test system of a further experiment is T. b. brucei. The following applies: for survival: n = 3. Here is the method: The antiparasitic assays were carried out exactly as described in Blaazer et al.([39]) Metabolic stability, pharmacokinetics, acute mouse infection model results were collected as described previously.[21] All animal experiments were conducted in compliance with institutional guidelines and following approval by the Ethical Committee of the University of Antwerp, Belgium [UA-ECD 2014–96]. Female Swiss mice (15–20 g), were purchased from Janvier (Le Genest Saint Isle, France). […] Animals were treated PO b.i.d. for 5 days at 25 and 50 mg/kg 31c. For the SL-RNA qPCR experiments blood was collected sublingually and subjected to erythrocyte lysis before extracting RNA with the QIAamp RNA Blood Mini kit (Qiagen). […] Small pieces of fat, brain, and spleen tissue were excised and immediately transferred to RNA later (Qiagen) and incubated overnight at 4 °C. RNA extraction was performed as instructed in the RNeasy Mini Plus Kit manual (Qiagen). The one-step SensiFAST SYBR Hi-Rox PCR kit (Bioline USA Inc., via Gentaur Belgium BVBA, Kampenhout, Belgium) was used for the PCR with the following forward and reverse primers, respectively 5′-[…]-3′ and 5′-[…]-3′. An initial activation step of 10 min at 45 °C and 10 min at 95 °C was used, followed by the amplification step for 40 cycles (15 s at 95 °C, 15 s 50 °C and 15 s at 60 °C). At last, the melting curves were generated with an increment of 0.3 °C (15 s at 95 °C 1 min at 45 °C and 15 s at 95 °C). The PCR was run on the Step One Plus real-time PCR system (Applied Biosystems, California, USA). An additional qPCR was performed with the mouse housekeeping gene Eef2 to confirm successful RNA extraction.
Mice were allocated to groups of three and were infected by IP injection of 10^4T. brucei Squib 427 trypomastigotes. […] Suramin was included as a reference for T. brucei and injected IP s.i.d. for 5 days at 10 mg/kg. A PEG400 vehicle control group was also included. […] The first treatment was given 30 min prior to the artificial infection. Drug efficacy was evaluated by microscopic determination of the parasitemia in a blood drop collected from the tail vein at several time points until 63 days postinfection (dpi). […] An SL-RNA qPCR assay was performed in all surviving animals to confirm parasitological cure. For the SL-RNA qPCR, peripheral blood was subjected to erythrocyte lysis before extracting RNA with the QIAamp RNA Blood Mini kit (Qiagen). […] Small pieces of fat, brain, and spleen tissues were excised and immediately transferred to RNA later (Qiagen) and incubated overnight at 4 °C. RNA extraction was performed as instructed in the RNeasy Mini Plus Kit manual (Qiagen). […]

Turning to `CC(C)(C)c1n[nH]c2c(=O)[nH]c(-c3ccc(F)cc3)nc12` [31c, 3-(tert-Butyl)-5-(4-fluorophenyl)-1,6-dihydro-7H-pyrazolo[4,3-d]pyrimidin-7-one], the IC50 (with Trypanosoma cruzi; in experiment [1]) was over 63.1 µM throughout. In addition, the survival result in the experiment with T. b. brucei (25 mg/kg b.i.d. PO for 5 days, one accidental death in this group) is listed as “survived throughout the 60 days postinfection follow-up period without relapse”; with T. b. brucei (50 mg/kg b.i.d. PO for 5 days), “survived throughout the 60 days postinfection follow-up period without relapse”. For the same molecule, the “trypanosome Spliced Leader (SL) RNA by qPCR” value with T. b. brucei (blood, spleen, fat and brain tissue of surviving animals) was “difficulty to detect trypanosome Spliced Leader (SL) RNA”.
